Results from patent US8394829B2, “Bi-functional quinoline analogs” (Gilead Sciences, Inc., priority 2010, dated 2013).

What was measured:
[1] = target: T1, Human recombinant PDE4B2 (Homo sapiens, UniProt Q07343); assay: Inhibition of PDE4B4 enzyme activity (PDE Glo Assay); assay type: biochemical; conditions: human recombinant PDE4B2, 50 nM cAMP; read-out: PDE4 IC50
T1 construct: purchased BPS Bioscience
Method in brief: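 Human recombinant PDE4B2 (0.12 nM) was pre-incubated with compound for 10 min at rt, then 50 nM cAMP was added for 1 hr. After IBMX stop and PKA detection, read-out was Kinase-Glo luminescence. IC50 came from a single-site nonlinear fit of RLU versus concentration.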

[2] = target: T2, human recombinant beta-2 adrenoreceptors (Homo sapiens, UniProt P07550); assay: Beta-2 adrenoceptor binding assay ([3H](−)CGP-12177 displacement); conditions: CHO cells expressing human beta-2 adrenoreceptors, [3H](−)CGP-12177 0.3 nM, 120 min
T2 construct: expressed in transfected cells; host or cells: CHO cells
Method in brief: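 Displacement of [3H](−)CGP-12177 (0.3 nM) from human recombinant beta-2 receptors expressed in CHO cells, measured after 120 min incubation with test compound. Bound radioligand counted by scintillation; IC50 taken from concentration-response curves as 50% of each compound's maximal inhibition.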

[3] = target: T2, human recombinant beta-2 adrenoreceptors; assay: Functional agonism of human recombinant beta-2 adrenoreceptors expressed in CHO cells (cAMP HTRF); assay type: cell-based; conditions: CHO cells expressing human beta-2 adrenoreceptors, cAMP elevation, 30 min
Method in brief: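 CHO cells expressing recombinant receptor incubated with compound for 30 min; intracellular cAMP rise over control read by HTRF. EC50 taken as concentration giving 50% of that compound's own maximal response, with full or partial agonism judged against isoproterenol maximum.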

[4] = test system: LPS-induced TNF-α release from human peripheral blood mononuclear cells (PBMC); assay: Inhibition of LPS-induced TNF-α release from human PBMC; assay type: cell-based; conditions: LPS 0.4 ng/mL, 6 h, presence or absence of ICI-118551 not given
Method in brief: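 Ficoll-purified primary PBMC, 100,000 cells/well, pre-incubated 30 min ± 10 μM ICI-118551 (± gives PDE4-only vs PDE4 plus beta-2 activity), then compound 1 h at 37 °C (0.1% DMSO). Stimulated with 0.4 ng/mL LPS for 6 h; supernatant TNF-α by bead cytokine assay; IC50 from single-site fit.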

T1 sequence (Q07343 1-564 isoform Q07343-2): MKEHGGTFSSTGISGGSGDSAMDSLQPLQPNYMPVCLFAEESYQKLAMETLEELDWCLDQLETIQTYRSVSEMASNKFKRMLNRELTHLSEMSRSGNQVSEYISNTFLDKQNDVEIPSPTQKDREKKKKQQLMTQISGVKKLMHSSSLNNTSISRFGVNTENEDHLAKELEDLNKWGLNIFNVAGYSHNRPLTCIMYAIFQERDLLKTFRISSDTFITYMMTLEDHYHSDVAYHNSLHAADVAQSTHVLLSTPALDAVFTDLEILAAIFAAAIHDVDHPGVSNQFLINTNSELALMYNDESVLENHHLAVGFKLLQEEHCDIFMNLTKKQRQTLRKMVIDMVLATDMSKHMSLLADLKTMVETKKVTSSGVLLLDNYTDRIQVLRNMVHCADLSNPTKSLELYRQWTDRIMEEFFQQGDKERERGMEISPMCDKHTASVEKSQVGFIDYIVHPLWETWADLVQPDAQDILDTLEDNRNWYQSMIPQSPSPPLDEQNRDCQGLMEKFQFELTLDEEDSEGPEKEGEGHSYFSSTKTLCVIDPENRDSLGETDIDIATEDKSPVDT
T2 sequence (P07550 whole entry): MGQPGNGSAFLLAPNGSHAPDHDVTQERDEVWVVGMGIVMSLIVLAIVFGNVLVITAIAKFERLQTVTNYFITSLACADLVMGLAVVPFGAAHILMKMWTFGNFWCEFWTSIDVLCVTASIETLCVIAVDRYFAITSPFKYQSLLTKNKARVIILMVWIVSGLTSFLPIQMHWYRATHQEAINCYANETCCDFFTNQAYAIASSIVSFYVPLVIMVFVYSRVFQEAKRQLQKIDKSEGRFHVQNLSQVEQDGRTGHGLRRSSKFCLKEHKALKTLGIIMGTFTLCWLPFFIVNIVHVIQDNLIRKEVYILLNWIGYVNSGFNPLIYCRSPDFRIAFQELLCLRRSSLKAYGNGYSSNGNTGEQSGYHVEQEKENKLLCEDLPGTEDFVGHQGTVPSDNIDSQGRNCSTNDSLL

| SMILES | IC50 [1] | IC50 [2] | EC50 [3] | EC50 [4] |
| --- | --- | --- | --- | --- |
| COc1cccc(Nc2c(C(N)=O)cnc3c(C)cc(S(=O)(=O)c4cccc(C(=O)N(C)CCCCCCNC[C@H](O)c5ccc(O)c6c5OCC(=O)N6)c4)cc23)c1 [Example 30, (R)-6-((3-((6-((2-hydroxy-2-(5-hydroxy-3-oxo-3,4-dihydro-2H-benzo[b][1,4]oxazin-8-yl)ethyl)amino)hexyl)(methyl)carbamoyl)phenyl)sulfonyl)-4-((3-methoxyphenyl)amino)-8-methylquinoline-3-carboxamide] | < 100 nM | < 100 nM | < 100 nM | < 100 nM |
| COc1cccc(Nc2c(C(N)=O)cnc3c(C)cc(S(=O)(=O)c4cccc(C(=O)Nc5ccc(C#CCCCNC[C@H](O)c6ccc(O)c(NC=O)c6)cc5)c4)cc23)c1 [Example 31, (R)-6-[[3-[[4-[5-[[2-(3-Formamido-4-hydroxyphenyl)-2-hydroxyethyl]amino]pent-1-ynyl]phenyl]carbamoyl]phenyl]sulfonyl]-4-[(3-methoxyphenyl)amino]-8-methylquinoline-3-carboxamide] | < 100 nM | < 300 nM | < 300 nM | < 100 nM |
| COc1cccc(Nc2c(C(N)=O)cnc3c(C)cc(S(=O)(=O)c4cccc(C(=O)Nc5ccc(C#CCCCNC[C@H](O)c6ccc(O)c7c6OCC(=O)N7)cc5)c4)cc23)c1 [Example 32, (R)-6-((3-((4-(5-((2-hydroxy-2-(5-hydroxy-3-oxo-3,4-dihydro-2H-benzo[b][1,4]oxazin-8-yl)ethyl)amino)pent-1-yn-1-yl)phenyl)carbamoyl)phenyl)sulfonyl)-4-((3-methoxyphenyl)amino)-8-methylquinoline-3-carboxamide] | < 100 nM | < 100 nM | < 100 nM | < 100 nM |
| COc1cccc(Nc2c(C(N)=O)cnc3c(C)cc(S(=O)(=O)c4cccc(C(=O)N(C)c5ccc(C#CCCCNC[C@H](O)c6ccc(O)c7[nH]c(=O)ccc67)cc5)c4)cc23)c1 [Example 33, (R)-6-((3-((4-(5-((2-hydroxy-2-(8-hydroxy-2-oxo-1,2-dihydroquinolin-5-yl)ethyl)amino)pent-1-yn-1-yl)phenyl)(methyl)carbamoyl)phenyl)sulfonyl)-4-((3-methoxyphenyl)amino)-8-methylquinoline-3-carboxamide] | < 100 nM | < 100 nM | < 100 nM | < 100 nM |
| COc1cccc(Nc2c(C(N)=O)cnc3c(C)cc(S(=O)(=O)c4cccc(C(=O)Nc5ccc(C#CCCCNC[C@H](O)c6ccc(O)c7[nH]c(=O)ccc67)cc5C)c4)cc23)c1 [Example 34, (R)-6-((3-((4-(5-((2-hydroxy-2-(8-hydroxy-2-oxo-1,2-dihydroquinolin-5-yl)ethyl)amino)pent-1-yn-1-yl)-2-methylphenyl)carbamoyl)phenyl)sulfonyl)-4-((3-methoxyphenyl)amino)-8-methylquinoline-3-carboxamide] | < 100 nM | < 100 nM | < 100 nM | < 100 nM |
| COc1cccc(Nc2c(C(N)=O)cnc3c(C)cc(S(=O)(=O)c4cccc(C(=O)Nc5ccc(C6(CCCCNC[C@H](O)c7ccc(O)c8[nH]c(=O)ccc78)SCCS6)cc5)c4)cc23)c1 [Example 37, (R)-6-((3-((4-(2-(4-((2-hydroxy-2-(8-hydroxy-2-oxo-1,2-dihydroquinolin-5-yl)ethyl)amino)butyl)-1,3-dithiolan-2-yl)phenyl)carbamoyl)phenyl)sulfonyl)-4-((3-methoxyphenyl)amino)-8-methylquinoline-3-carboxamide] | < 100 nM | < 100 nM | < 100 nM | < 100 nM |
| COc1cccc(Nc2c(C(N)=O)cnc3c(C)cc(S(=O)(=O)c4cccc(C(=O)Nc5ccc(CCCCOCCCCCCNC[C@H](O)c6ccc(O)c7[nH]c(=O)ccc67)cc5)c4)cc23)c1 [Example 38, (R)-6-((3-((4-(4-((6-((2-hydroxy-2-(8-hydroxy-2-oxo-1,2-dihydroquinolin-5-yl)ethyl)amino)hexyl)oxy)butyl)phenyl)carbamoyl)phenyl)sulfonyl)-4-((3-methoxyphenyl)amino)-8-methylquinoline-3-carboxamide] | < 100 nM | < 100 nM | < 100 nM | < 100 nM |
| COc1cccc(Nc2c(C(N)=O)cnc3c(C)cc(S(=O)(=O)c4cccc(C(=O)Nc5ccc(CCOCCCCCCNC[C@H](O)c6ccc(O)c7[nH]c(=O)ccc67)cc5)c4)cc23)c1 [Example 39, (R)-6-((3-((4-(2-((6-((2-hydroxy-2-(8-hydroxy-2-oxo-1,2-dihydroquinolin-5-yl)ethyl)amino)hexyl)oxy)ethyl)phenyl)carbamoyl)phenyl)sulfonyl)-4-((3-methoxyphenyl)amino)-8-methylquinoline-3-carboxamide] | < 100 nM | < 100 nM | < 100 nM | < 100 nM |
| COc1cccc(Nc2c(C(N)=O)cnc3c(C)cc(S(=O)(=O)c4cccc(C(=O)NCCCCCCNC[C@H](O)c5ccc(O)c(CO)c5)c4)cc23)c1 [Example 41, (R)-6-[[3-[[6-[[2-Hydroxy-2-[4-hydroxy-3-(hydroxymethyl)phenyl]ethyl]amino]hexyl]carbamoyl]phenyl]sulfonyl]-4-[(3-methoxyphenyl)amino]-8-methylquinoline-3-carboxamide] | < 100 nM | < 100 nM | < 100 nM | < 100 nM |
| COc1cccc(Nc2c(C(N)=O)cnc3c(C)cc(S(=O)(=O)c4cccc(C(=O)NCCCCCCNC[C@H](O)c5ccc(O)c(NS(C)(=O)=O)c5)c4)cc23)c1 [Example 43, (R)-6-[[3-[[6-[[2-Hydroxy-2-[4-hydroxy-3-(methylsulfonamido)phenyl]ethyl]amino]hexyl]carbamoyl]phenyl]sulfonyl]-4-[(3-methoxyphenyl)amino]-8-methylquinoline-3-carboxamide] | < 100 nM | < 100 nM | < 100 nM | < 100 nM |
| COc1cccc(Nc2c(C(N)=O)cnc3c(C)cc(S(=O)(=O)c4cccc(C(=O)N(C)CCCCCCNC[C@H](O)c5ccc(O)c(CO)c5)c4)cc23)c1 [Example 44, (R)-6-[[3-[[6-[[2-Hydroxy-2-(4-hydroxy-3-(hydroxymethyl]phenyl]ethyl]amino)hexyl](methyl)carbamoyl]phenyl]sulfonyl]-4-[(3-methoxyphenyl)amino]-8-methylquinoline-3-carboxamide] | < 100 nM | > 300 nM | > 300 nM | < 100 nM |
| COc1cccc(Nc2c(C(N)=O)cnc3c(C)cc(S(=O)(=O)CCCCCCCCCCCNC[C@H](O)c4ccc(O)c5[nH]c(=O)ccc45)cc23)c1 [Example 45, (R)-6-((11-((2-hydroxy-2-(8-hydroxy-2-oxo-1,2-dihydroquinolin-5-yl)ethyl)amino)undecyl)sulfonyl)-4-((3-methoxyphenyl)amino)-8-methylquinoline-3-carboxamide] | < 100 nM | < 100 nM | < 100 nM | < 100 nM |
| COc1cccc(Nc2c(C(N)=O)cnc3c(C)cc(S(=O)(=O)CCCCCCCCCCCNC[C@H](O)c4cc(O)cc5c4OCC(=O)N5)cc23)c1 [Example 46, (R)-6-((11-((2-hydroxy-2-(6-hydroxy-3-oxo-3,4-dihydro-2H-benzo[b][1,4]oxazin-8-yl)ethyl)amino)undecyl)sulfonyl)-4-((3-methoxyphenyl)amino)-8-methylquinoline-3-carboxamide] | < 100 nM | < 100 nM | < 300 nM | < 100 nM |
| COc1cccc(Nc2c(C(N)=O)cnc3c(C)cc(S(=O)(=O)c4cccc(-c5ccc(CNC[C@H](O)c6ccc(O)c7[nH]c(=O)ccc67)cc5)c4)cc23)c1 [Example 47, (R)-6-((4′-(((2-hydroxy-2-(8-hydroxy-2-oxo-1,2-dihydroquinolin-5-yl)ethyl)amino)methyl)-[1,1′-biphenyl]-3-yl)sulfonyl)-4-((3-methoxyphenyl)amino)-8-methylquinoline-3-carboxamide] | < 100 nM | > 300 nM | > 300 nM | < 100 nM |
| COc1cccc(Nc2c(C(N)=O)cnc3c(C)cc(S(=O)(=O)c4ccc(-c5ccc(CNC[C@H](O)c6ccc(O)c7[nH]c(=O)ccc67)cc5)cc4)cc23)c1 [Example 48, (R)-6-((4′-(((2-hydroxy-2-(8-hydroxy-2-oxo-1,2-dihydroquinolin-5-yl)ethyl)amino)methyl)-[1,1′-biphenyl]-4-yl)sulfonyl)-4-((3-methoxyphenyl)amino)-8-methylquinoline-3-carboxamide] | < 100 nM | < 100 nM | < 100 nM | < 100 nM |
